From patent publication US20080051429A1, “USE OF 4-AMINO-PIPERIDINES FOR TREATING SLEEP DISORDERS” (priority 2006, published 2008) come the findings set out here.

Structures are written as SMILES. Some results are limits rather than exact numbers.

Experiment in all cases: R-SAT broad profiling
What all share (type): cell-based
Holding throughout (conditions): read-out: pEC50/pIC50 (converted)

In assay [1] the target is T1, D1 (Homo sapiens, UniProt P21728).
T1 construct: expressed in transfected cells; host or cells: NIH3T3
T1 sequence (P21728 whole entry): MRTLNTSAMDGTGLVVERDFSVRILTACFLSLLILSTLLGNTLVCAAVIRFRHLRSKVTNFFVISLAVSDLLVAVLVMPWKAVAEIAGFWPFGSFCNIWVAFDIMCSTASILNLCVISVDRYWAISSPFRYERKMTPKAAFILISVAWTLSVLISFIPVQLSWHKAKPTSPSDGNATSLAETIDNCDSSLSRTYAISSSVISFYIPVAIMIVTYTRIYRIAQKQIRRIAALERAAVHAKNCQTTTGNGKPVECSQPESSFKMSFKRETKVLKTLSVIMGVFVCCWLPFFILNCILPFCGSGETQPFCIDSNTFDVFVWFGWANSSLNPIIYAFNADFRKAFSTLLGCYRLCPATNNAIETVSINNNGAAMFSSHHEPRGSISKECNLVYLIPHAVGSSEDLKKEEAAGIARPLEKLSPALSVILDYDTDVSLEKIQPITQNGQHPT
As to the method:
(§1) The functional receptor assay, Receptor Selection and Amplification Technology (R-SAT), was used (with minor modifications from that previously described U.S. Pat. No. 5,707,798) to screen compounds for efficacy at the 5-HT2A receptor. Briefly, NIH3T3 cells were grown in 96 well tissue culture plates to 70-80% confluence. Cells were transfected for 12-16 hours with plasmid DNAs using superfect (Qiagen Inc.) as per manufacture's protocols. R-SAT's were generally performed with 50 ng/well of receptor and 20 ng/well of Beta-galactosidase plasmid DNA. All receptor and G-protein constructs used were in the pSI mammalian expression vector (Promega Inc) as described in U.S. Pat. No. 5,707,798. The 5HT2A receptor gene was amplified by nested PCR from brain cDNA using the oligodeoxynucleotides based on the published sequence (see Saltzman et. al. Biochem. Biophys. Res. Comm. 181:1469-78 (1991)). Large-scale transfections, cells were transfected for 12-16 hours, then trypsinized and frozen in DMSO. Frozen cells were later thawed, plated at 10,000-40,000 cells per well of a 96 well plate that contained drug. With both methods, cells were then grown in a humidified atmosphere with 5% ambient CO2 for five days. Media was then removed from the plates and marker gene activity was measured by the addition of the beta-galactosidase substrate ONPG (in PBS with 5% NP-40). The resulting colorimetric reaction was measured in a spectrophotometric plate reader (Titertek Inc.)at […]. All data were analyzed using the computer program XLFit (IDBSm). Efficacy is the percent maximal repression compared to repression by a control compound (ritanserin in the case of 5HT2A). pIC50 is the negative of the log(IC50), where IC50 is the calculated concentration in Molar that produces 50% maximal repression.
(§2) The R-SAT assay (described above in example 136) was used to investigate the selectivity of 2-(4-Methoxyphenyl)-N-(4-methylbenzyl)-N-(1-methylpiperidin-4-yl)acetamide hydrochloride.

Assay [2] deals with T2, Histamine 1 (Homo sapiens, UniProt P35367).
T2 construct: expressed in transfected cells; host or cells: NIH3T3
T2 sequence (P35367 whole entry): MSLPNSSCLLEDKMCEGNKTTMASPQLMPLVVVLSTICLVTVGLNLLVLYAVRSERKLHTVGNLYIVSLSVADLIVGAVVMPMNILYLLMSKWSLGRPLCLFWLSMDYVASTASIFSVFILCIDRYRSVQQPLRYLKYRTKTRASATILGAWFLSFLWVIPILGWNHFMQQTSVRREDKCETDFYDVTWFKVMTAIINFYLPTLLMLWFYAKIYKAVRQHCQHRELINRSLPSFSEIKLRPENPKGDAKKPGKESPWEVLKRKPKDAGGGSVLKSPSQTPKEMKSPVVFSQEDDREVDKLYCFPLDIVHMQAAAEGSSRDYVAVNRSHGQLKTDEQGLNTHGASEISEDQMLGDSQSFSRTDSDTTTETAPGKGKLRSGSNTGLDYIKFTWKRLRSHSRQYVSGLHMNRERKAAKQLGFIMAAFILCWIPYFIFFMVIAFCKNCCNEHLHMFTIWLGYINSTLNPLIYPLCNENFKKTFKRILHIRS
As to the method: as §1, §2

For assay [3], the target named is T3, D3 (Homo sapiens, UniProt P35462).
T3 construct: expressed in transfected cells; host or cells: NIH3T3
T3 sequence (P35462 whole entry): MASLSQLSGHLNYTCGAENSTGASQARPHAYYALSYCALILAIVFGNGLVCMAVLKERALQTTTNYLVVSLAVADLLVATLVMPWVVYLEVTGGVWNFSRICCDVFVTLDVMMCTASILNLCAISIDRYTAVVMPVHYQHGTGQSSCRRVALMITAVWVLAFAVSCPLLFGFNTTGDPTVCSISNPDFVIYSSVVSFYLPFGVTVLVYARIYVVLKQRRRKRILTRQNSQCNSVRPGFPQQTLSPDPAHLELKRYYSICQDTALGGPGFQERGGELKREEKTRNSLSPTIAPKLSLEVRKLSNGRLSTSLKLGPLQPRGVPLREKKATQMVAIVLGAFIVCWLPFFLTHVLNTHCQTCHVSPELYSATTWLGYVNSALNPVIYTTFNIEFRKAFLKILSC
The method, then:
as §1, §2

The target of assay [4] is T4, 5-HT7 (Homo sapiens, UniProt P34969).
T4 construct: expressed in transfected cells
T4 sequence (P34969 whole entry, species assumed): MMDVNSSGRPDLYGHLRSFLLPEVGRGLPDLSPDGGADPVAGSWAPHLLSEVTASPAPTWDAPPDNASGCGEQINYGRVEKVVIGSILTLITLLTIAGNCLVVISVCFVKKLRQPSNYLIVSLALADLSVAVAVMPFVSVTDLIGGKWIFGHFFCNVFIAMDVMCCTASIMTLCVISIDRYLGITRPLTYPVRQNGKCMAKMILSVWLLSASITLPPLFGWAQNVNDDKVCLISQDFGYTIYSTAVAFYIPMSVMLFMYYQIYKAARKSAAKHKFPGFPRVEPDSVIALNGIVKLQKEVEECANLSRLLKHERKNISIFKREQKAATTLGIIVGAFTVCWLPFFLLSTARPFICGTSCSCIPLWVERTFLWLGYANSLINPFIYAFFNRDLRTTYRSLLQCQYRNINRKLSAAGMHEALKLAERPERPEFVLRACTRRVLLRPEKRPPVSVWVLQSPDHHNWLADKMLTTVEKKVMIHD
The method, then: as §1, §2

Assay [5] has as its target T5, alpha 2C (Homo sapiens, UniProt P18825).
T5 construct: expressed in transfected cells; host or cells: NIH3T3
T5 sequence (P18825 1-462): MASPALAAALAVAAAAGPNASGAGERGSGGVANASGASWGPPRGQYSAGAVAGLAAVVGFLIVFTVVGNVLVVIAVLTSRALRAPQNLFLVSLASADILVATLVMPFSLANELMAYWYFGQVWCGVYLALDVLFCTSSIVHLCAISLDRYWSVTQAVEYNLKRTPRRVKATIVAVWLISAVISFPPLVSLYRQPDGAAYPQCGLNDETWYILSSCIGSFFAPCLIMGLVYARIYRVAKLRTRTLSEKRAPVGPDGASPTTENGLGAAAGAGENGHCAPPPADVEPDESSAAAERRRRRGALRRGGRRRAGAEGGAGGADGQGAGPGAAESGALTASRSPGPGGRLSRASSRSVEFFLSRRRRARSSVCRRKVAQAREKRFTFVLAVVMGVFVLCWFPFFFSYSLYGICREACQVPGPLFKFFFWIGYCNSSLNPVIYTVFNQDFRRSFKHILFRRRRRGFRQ
The method, then: as §1, §2

Assay [6] addresses T6, m5 (Homo sapiens, UniProt P08912).
T6 construct: expressed in transfected cells; host or cells: NIH3T3
T6 sequence (P08912 1-532): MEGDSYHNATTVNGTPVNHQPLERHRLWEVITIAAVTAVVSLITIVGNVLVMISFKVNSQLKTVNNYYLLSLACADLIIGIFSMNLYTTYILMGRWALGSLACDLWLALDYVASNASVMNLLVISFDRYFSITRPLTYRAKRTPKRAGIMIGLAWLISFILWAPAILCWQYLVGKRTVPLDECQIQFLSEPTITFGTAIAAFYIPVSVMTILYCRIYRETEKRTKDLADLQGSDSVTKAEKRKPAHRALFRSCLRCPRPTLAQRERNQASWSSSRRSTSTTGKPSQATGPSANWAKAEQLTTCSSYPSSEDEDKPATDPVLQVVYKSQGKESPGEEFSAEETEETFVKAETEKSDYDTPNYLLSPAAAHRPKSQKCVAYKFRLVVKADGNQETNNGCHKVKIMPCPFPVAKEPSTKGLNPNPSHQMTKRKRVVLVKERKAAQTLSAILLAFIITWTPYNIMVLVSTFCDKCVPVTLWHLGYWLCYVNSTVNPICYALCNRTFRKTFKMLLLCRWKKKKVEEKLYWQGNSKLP
As to the method:
as §1, §2

Assay [7] has as its target T7, m4 (Homo sapiens, UniProt P08173).
T7 construct: expressed in transfected cells; host or cells: NIH3T3
T7 sequence (P08173 1-479): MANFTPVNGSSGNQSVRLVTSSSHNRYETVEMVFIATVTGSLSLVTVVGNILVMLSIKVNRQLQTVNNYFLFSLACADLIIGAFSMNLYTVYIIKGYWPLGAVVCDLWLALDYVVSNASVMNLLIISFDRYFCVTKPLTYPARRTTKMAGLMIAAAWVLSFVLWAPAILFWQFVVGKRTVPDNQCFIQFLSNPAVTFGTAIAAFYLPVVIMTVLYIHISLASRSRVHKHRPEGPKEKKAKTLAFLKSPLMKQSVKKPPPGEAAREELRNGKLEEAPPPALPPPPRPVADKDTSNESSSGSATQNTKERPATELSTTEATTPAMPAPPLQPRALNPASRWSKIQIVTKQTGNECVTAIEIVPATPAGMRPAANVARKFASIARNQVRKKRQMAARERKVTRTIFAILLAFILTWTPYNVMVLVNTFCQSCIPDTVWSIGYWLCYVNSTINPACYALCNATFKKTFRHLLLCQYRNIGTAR
As to the method: as §1, §2

As for `COc1ccc(CC(=O)N(Cc2ccc(C)cc2)C2CCN(C)CC2)cc1` [Example 50ELH27, 2-(4-Methoxyphenyl)-N-(4-methylbenzyl)-N-(1-methylpiperidin-4-yl)acetamide], the EC50 in assay [1] (agonist), in assay [2] (agonist), in assay [3] (agonist), in assay [4] (agonist), in assay [5] (agonist) and in assay [6] (agonist) was > 3.16 µM in each case. Further, the EC50 in assay [7] (agonist) was > 3.16 µM. Moreover, the IC50 in assay [1] (antagonist) was > 3.16 µM; in assay [2] (Inv. Agonist) it was > 3.16 µM; in assay [3] (antagonist), > 3.16 µM; in assay [4] (inverse agonist) it was 126 nM; in assay [5] (antagonist) it was > 3.16 µM; in assay [6] (antagonist), > 3.16 µM. Moreover, the IC50 in assay [7] (antagonist) was > 3.16 µM.
